US20170037028A1 (BAYER PHARMA AKTIENGESELLSCHAFT, priority 2013, published 2017)

Target: T1, GLUT1 (Homo sapiens, UniProt P11166)
T1 sequence (P11166 1-492): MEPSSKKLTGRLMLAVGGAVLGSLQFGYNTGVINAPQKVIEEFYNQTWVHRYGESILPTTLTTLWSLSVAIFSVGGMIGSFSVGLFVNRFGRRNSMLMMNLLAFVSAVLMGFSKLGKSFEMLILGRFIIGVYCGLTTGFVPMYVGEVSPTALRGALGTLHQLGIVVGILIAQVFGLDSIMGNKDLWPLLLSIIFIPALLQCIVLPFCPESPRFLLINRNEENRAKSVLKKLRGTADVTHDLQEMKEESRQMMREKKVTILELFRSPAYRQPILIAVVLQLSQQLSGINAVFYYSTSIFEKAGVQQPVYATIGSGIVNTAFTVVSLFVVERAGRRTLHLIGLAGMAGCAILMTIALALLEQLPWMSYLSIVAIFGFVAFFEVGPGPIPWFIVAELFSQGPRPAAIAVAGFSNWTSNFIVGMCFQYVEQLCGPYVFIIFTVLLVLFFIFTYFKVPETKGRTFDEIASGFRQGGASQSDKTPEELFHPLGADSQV
Test: Indirect measurement of GLUT1 activity by quantification of intracellular ATP levels (glucose induced ATP increase)
Type: cell-based
Set-up: endogenous in cells; host or cells: DLD1 or CHO-K1
Settings: read-out: IC50 regarding glucose induced ATP increase (GLUT1 inhibition)
Summary of the method: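 DLD1 or CHO-K1 cells were starved overnight in glucose-free medium with 1% FCS, then combined with an oxidative phosphorylation inhibitor. GLUT1 activity was read as glucose-induced ATP increase, GLUT2 as fructose-induced. Intracellular ATP was quantified by CellTiter-Glo luminescence.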

Structure (SMILES) | IC50 [µM]
Cc1c(NC(=O)c2cc(C(F)(F)F)nc3ccc(Br)cc23)c(C(=O)N(C)C)nn1Cc1ccc(F)cc1 [Example 1259] | 2.1
Cc1nn(Cc2ccc(F)cc2)c(C)c1NC(=O)c1cc(O)nc2ccccc12 [Example 1260] | 2.17
Cc1ccc2nc(C)cc(C(=O)Nc3c(C)nn(Cc4ccccn4)c3C)c2c1 [Example 1261] | 2.29
Cc1nn(CC2CCOCC2)c(C)c1NC(=O)c1cc(C(F)(F)F)nc2cc(F)c(F)cc12 [Example 1262] | 2.29
Cc1nn(Cc2ccc(C(=O)NCC(O)CO)cn2)c(C)c1NC(=O)c1cc(C(F)(F)F)nc2ccc(Br)cc12 (centres unmarked) [Example 1263] | 2.32
Cc1nc2ccccc2c(C(=O)Nc2c(C)nn(Cc3ccc(F)cc3)c2C)c1C#N [Example 1264] | 2.38
COc1cc(C(=O)Nc2c(C(=O)N(C)C)nn(Cc3ccc(F)cc3)c2C)c2ccccc2n1 [Example 1265] | 2.48
Cc1nn(C[C@@H]2CCC(=O)N2)c(C)c1NC(=O)c1cc(C(F)(F)F)nc2ccc(Br)cc12 [Example 1266] | 2.49
Cc1nn(Cc2ccc(F)cc2)c(C)c1NC(=O)c1cc(C(F)(F)F)nc2ccc(C(=O)O)cc12 [Example 1267] | 2.71
Cc1nn(Cc2ccc(F)cc2)c(C)c1NC(=O)c1cc(C(F)(F)F)nc2c(C#N)cccc12 [Example 1268] | 2.85
COc1cc(C(=O)Nc2c(C)nn(Cc3ccc(C(F)(F)F)cc3)c2C)c2ccccc2n1 [Example 1269] | 2.89
COc1ccccc1Cn1nc(C)c(NC(=O)c2cc(C(F)(F)F)nc3cc(F)c(F)cc23)c1C [Example 1270] | 2.89
Cc1c(NC(=O)c2cc(C(F)(F)F)nc3ccc(Br)cc23)c(C(=O)O)nn1Cc1ccc(F)cc1 [Example 1271] | 3.06
Cc1nn(Cc2ccc(F)cc2)c(C)c1NC(=O)c1c(C)c(O)nc2ccccc12 [Example 1272] | 3.18
COc1cc(C(=O)Nc2c(C)nn(Cc3c(C)noc3C)c2C)c2ccccc2n1 [Example 1273] | 3.37
COc1ccccc1Cn1nc(C)c(NC(=O)c2cc(C(F)(F)F)nc3ccc(Br)cc23)c1C [Example 1274] | 3.41
Cc1nn(Cc2ccc(C(=O)O)cn2)c(C)c1NC(=O)c1cc(C(N)=O)nc2ccc(F)cc12 [Example 1275] | 3.5
Cc1nn(Cc2ccc(F)cc2)c(C)c1NC(=O)c1cc(C(F)(F)F)nc2cc(C(F)(F)F)ccc12 [Example 1276] | 3.81
Cc1cc(C(=O)Nc2c(C)nn(Cc3ccc(F)cc3)c2C)c2ccc(Br)cc2n1 [Example 1277] | 3.85
Cc1ccc2c(C(=O)Nc3c(C)nn(Cc4ccc(F)cc4)c3C)cc(C)nc2c1 [Example 1278] | 3.91
Cc1nn(CCN2CCN(C)CC2)c(C)c1NC(=O)c1cc(C(F)(F)F)nc2ccc(Br)cc12 [Example 1279] | 3.93
Cc1ccc2nc(C)cc(C(=O)Nc3c(C)nn(Cc4cc(F)ccc4F)c3C)c2c1 [Example 1281] | 5.19
Cc1nn(CCc2cccc(F)c2)c(C)c1NC(=O)c1cc(C(F)(F)F)nc2ccc(Br)cc12 [Example 1282] | 6.02

Structure (SMILES) | IC50 [µM]
Cc1ccc2nc(C)cc(C(=O)Nc3c(C)nn(Cc4cccc(C#N)c4)c3C)c2c1 [Example 1283] | 6.25
COc1cc(C(=O)Nc2c(C)nn(Cc3cc(F)cc(F)c3)c2C)c2ccccc2n1 [Example 1284] | 6.25
Cc1ccc2nc(C)cc(C(=O)Nc3c(C)nn(Cc4ncccc4C)c3C)c2c1 [Example 1285] | 6.25
COc1cc(C(=O)Nc2c(C)nn(Cc3cccc(C#N)c3)c2C)c2ccccc2n1 [Example 1286] | 6.25
Cc1ccc2nc(C)cc(C(=O)Nc3c(C)nn(Cc4ccccc4OC(F)(F)F)c3C)c2c1 [Example 1287] | 6.25
Cc1nn(Cc2ccccc2OC(F)(F)F)c(C)c1NC(=O)c1cc(C(F)(F)F)nc2c(Cl)cc(Cl)cc12 [Example 1288] | 6.25
COc1cc(C(=O)Nc2c(C)nn(Cc3ccccc3OC(F)(F)F)c2C)c2ccccc2n1 [Example 1289] | 6.25
Cc1ccc2nc(C)cc(C(=O)Nc3c(C)nn(Cc4ccc(C(C)(C)C)cc4)c3C)c2c1 [Example 1290] | 7.11
Cc1nn(Cc2ccc(C(=O)NCCN(C)C)cn2)c(C)c1NC(=O)c1cc(C(F)(F)F)nc2ccc(Br)cc12 [Example 1292] | 7.38
COc1cc(Cn2nc(C)c(NC(=O)c3cc(C)nc4ccc(C)cc34)c2C)cc(OC)c1 [Example 1293] | 7.79
Cc1nn(Cc2ccc(F)cc2)c(C)c1NC(=O)c1cc(C(F)(F)F)nc2ccc(C(N)=O)cc12 [Example 1294] | 8.12
Cc1nn(Cc2cc(F)ccc2F)c(C)c1NC(=O)c1cc(C(F)(F)F)nc2c(Cl)cc(Cl)cc12 [Example 1295] | 8.15
Cc1ccc2nc(C)cc(C(=O)Nc3c(C)nn(Cc4cc(F)cc(F)c4)c3C)c2c1 [Example 1296] | 11.1
Cc1nn(Cc2cccc(C(F)(F)F)c2)c(C)c1NC(=O)c1cc(C(F)(F)F)nc2ccc(Br)cc12 [Example 1297] | 11.1
Cc1ccc2nc(C)cc(C(=O)Nc3c(C)nn(Cc4ccccc4C(F)(F)F)c3C)c2c1 [Example 1298] | 11.1
Cc1nn(Cc2ccccc2C(F)(F)F)c(C)c1NC(=O)c1cc(C(F)(F)F)nc2c(Cl)cc(Cl)cc12 [Example 1299] | 11.1
Cc1ccc2nc(C)cc(C(=O)Nc3c(C)nn(Cc4cccc(C(F)(F)F)c4)c3C)c2c1 [Example 1300] | 11.1
Cc1nn(Cc2ccccc2C(F)(F)F)c(C)c1NC(=O)c1cc(C(F)(F)F)nc2ccc(Br)cc12 [Example 1301] | 11.1
Cc1nn(Cc2ccc(C(F)(F)F)cc2)c(C)c1NC(=O)c1cc(C(F)(F)F)nc2ccc(Br)cc12 [Example 1302] | 11.1
COc1cc(C(=O)Nc2c(C)nn(Cc3cccc(C(F)(F)F)c3)c2C)c2ccccc2n1 [Example 1303] | 11.1
COc1cc(C(=O)Nc2c(C)nn(Cc3cc(F)ccc3F)c2C)c2ccccc2n1 [Example 1304] | 11.1
COc1cc(C(=O)Nc2c(C)nn(Cc3ccccc3C(F)(F)F)c2C)c2ccccc2n1 [Example 1305] | 11.1
Cc1nn(Cc2cccc(C(F)(F)F)c2)c(C)c1NC(=O)c1cc(C(F)(F)F)nc2c(Cl)cc(Cl)cc12 [Example 1306] | 11.1

Structure (SMILES) | IC50 [µM]
Cc1nn(Cc2ccc(F)cc2)c(C)c1NC(=O)c1cc(C(F)(F)F)nc2c(C(F)(F)F)cccc12 [Example 1307] | 14.3
Cc1cc(C(=O)Nc2c(C)nn(Cc3ccc(F)cc3)c2C)c2cccc(C#N)c2n1 [Example 1308] | 16.9
Cc1cc(C(=O)Nc2c(C)nn(Cc3ccc(F)cc3)c2C)c2ccc(C#N)cc2n1 [Example 1309] | 17.5
Cc1c(NC(=O)c2cc(C(F)(F)F)nc3ccc(Br)cc23)c(C#N)nn1Cc1ccc(F)cc1 [Example 1338] | 0.0263
Cc1nn(Cc2cscn2)c(C)c1NC(=O)c1cc(C(N)=O)nc2ccccc12 [Example 1339] | 0.0722
COc1ccc(CCn2nc(C)c(NC(=O)c3cc(OC)nc4ccccc34)c2C)cc1 [Example 1341] | 0.297
Cc1nn(Cc2cnn(C)c2C)c(C)c1NC(=O)c1cc(C(F)(F)F)nc2ccc(Br)cc12 [Example 1342] | 0.0265
Cc1nn(CCOc2ccc(C#N)cc2)c(C)c1NC(=O)c1cc(C(F)(F)F)nc2ccc(Br)cc12 [Example 1344] | 0.323
COc1ccc(CCn2nc(C)c(NC(=O)c3cc(C(N)=O)nc4cc(F)c(Cl)cc34)c2C)cc1 [Example 1346] | 0.0106
Cc1nn(CC2CNC(=O)O2)c(C)c1NC(=O)c1cc(C(N)=O)nc2ccccc12 (centres unmarked) [Example 1347] | 3.95
COc1cc(C(=O)Nc2c(C)nn(CCOc3ccc(C#N)cc3)c2C)c2ccccc2n1 [Example 1348] | 0.188
Cc1nn(Cc2ccc(C#N)cc2F)c(C)c1NC(=O)c1cc(C(F)(F)F)nc2ccc(Br)cc12 [Example 1349] | 0.0075
COc1ccc(CCn2nc(C)c(NC(=O)c3cc(C(F)(F)F)nc4ccc(Br)cc34)c2C)cc1 [Example 1350] | 0.0416
Cc1nn(Cc2cscn2)c(C)c1NC(=O)c1cc(C(F)(F)F)nc2ccc(Br)cc12 [Example 1351] | 0.134
COc1cc(C(=O)Nc2c(C)nn(Cc3ccc(C#N)cc3F)c2C)c2ccccc2n1 [Example 1352] | 0.0351
COc1ccc(CCn2nc(C)c(NC(=O)c3cc(C(N)=O)nc4ccccc34)c2C)cc1 [Example 1353] | 0.0389
Cc1nc(Cn2nc(C)c(NC(=O)c3cc(C(F)(F)F)nc4ccc(Br)cc34)c2C)cs1 [Example 1354] | 0.0489
CC(C)c1nn(Cc2ccc(F)cc2)c(C(C)C)c1NC(=O)c1cc(C(F)(F)F)nc2ccc(Br)cc12 [Example 1355] | > 13
Cc1ccc2nc(C)cc(C(=O)Nc3c(C(C)C)nn(Cc4ccc(F)cc4)c3C(C)C)c2c1 [Example 1356] | > 13
CC(C)c1nn(Cc2ccc(F)cc2)c(C(C)C)c1NC(=O)c1cc(C(F)(F)F)nc2cc(F)c(F)cc12 [Example 1357] | > 13
Cc1c(NC(=O)c2cc(C(F)(F)F)nc3ccc(Br)cc23)c(C(F)(F)F)nn1Cc1ccc(C#N)cc1F [Example 1358] | 0.0043
COc1cc(C(=O)Nc2c(C(F)(F)F)nn(Cc3ccc(C#N)cc3F)c2C)c2ccccc2n1 [Example 1359] | 0.022
